Each structure is given as a SMILES string.

The assay has as its system Plasmodium falciparum. The experiment in a line: GSK_TCMDC: Inhibition of Plasmodium falciparum 3D7 in whole erythrocytes, using parasite LDH activity as an index of growth. It counts as functional, organism-based.

As for `c1ccc(Oc2ccc(Nc3nc(NCCc4c[nH]cn4)nc(NC4CCCC4)n3)cc2)cc1`, the XC50 (Plasmodium falciparum, 3D7) is 1030 nM. Still for that read-out and setting: as for `CCCCC(NCC)c1ccc(OCCOc2ccc(C(CCCC)NCC)cc2)cc1` (stereo not given), the figure is 930 nM; as for `FC(F)(F)c1ccc2[nH]c(-c3cccc(-c4cccc(CNCc5cnn(-c6ccccc6)n5)c4)c3)nc2c1`, 552 nM; as for `CC(C)NCc1cccc(-c2ccc(NC(=O)c3cccc(C#N)c3)cc2)c1`, 324 nM. Still for that read-out and setting: as for `Cc1cccc2c1NC(=O)/C2=N/NC(=S)N(C)C`, the figure is 755 nM; as for `COc1ccc(-c2cccc(NC(=O)c3ccc(Cl)cc3)c2)cc1CN1CCNCC1`, 840 nM. On the same count and under the same terms, as for `Cc1ccc(Nc2ccnc3cc(-c4nccs4)ccc23)cc1C(O)c1ccccc1` (stereo not given), the figure is 735 nM. In the case of `CC(C)C[C@H]1c2[nH]c3ccc(Cl)cc3c2CCN1C(=O)CCc1ccccc1`, the XC50 (Plasmodium falciparum, 3D7) was 885 nM. The molecule `CCCN(CC1CC1)c1ncc(-c2ccccc2CNCc2ccccc2O)cn1` yielded an XC50 (Plasmodium falciparum, 3D7) of 496 nM. Still for that read-out and setting: as for `Cc1cc2[nH]c(-c3ccc(C(=O)NCCCN4CCN(c5cccc(Cl)c5)CC4)cc3)nc2cc1Cl`, the figure is 769 nM; as for `COc1cc(NC(=O)N2CCOC(CCN3CCC(c4ccccc4)CC3)(c3ccc(Cl)c(Cl)c3)C2)cc(OC)c1` (stereo not given), 287 nM; as for `O=C(Nc1cccc(CN2CCCN(Cc3ccc4c(c3)OCO4)CC2)c1)c1ccc(Cl)c(Cl)c1`, 893 nM.

As for `CCN(CC)CCOC(=O)C(OC)(c1ccccc1)c1ccccc1`, the XC50 (Plasmodium falciparum, 3D7) stood at 1020 nM. Still for that read-out and setting: as for `CC(C)(C)C1=CC(=NNC(=O)c2ccncc2)C=C(C(C)(C)C)C1=O`, the figure is 704 nM.

For the molecule `COc1ccccc1-c1cccc2c(NC(=O)Nc3ccc4nccc(N5CCN(C)CC5)c4c3)ccnc12`, where the note is “Plasmodium falciparum, 3D7”, the XC50 was found to be 1000 nM. The same measure, in the same setting: as for `CCN1C(=O)C(CC(=O)Nc2cccc(Cl)c2)N(Cc2ccc(OC)c(OC)c2)C1=S` (stereo not given), the figure is 607 nM. Turning to `COc1ccc2nc(-c3ccccc3)cc(NCCN(C)C)c2c1`, the XC50 (Plasmodium falciparum, 3D7) is 731 nM. Same read-out and setting: as for `CCc1ccc(CN(Cc2ccc(C)cc2)Cc2ccc(NC(C)=O)cc2)cc1`, the figure is 962 nM; as for `CO/C(=C\C=C\c1cc2cc(Cl)c(Cl)cc2[nH]1)C(=O)NCCCN1CCN(c2cccc(OC)c2)CC1`, 845 nM.

For the setting “Plasmodium falciparum, 3D7”, `NC(Cc1cccc(I)c1)C(=O)NCC1CCCO1` (stereo not given) showed an XC50 of 895 nM. `CC(C)(CC1CCCCC1)NC(=O)[C@H](CC1CCCCC1)Nc1ccc(C#N)c2ccccc12` had an XC50 (Plasmodium falciparum, 3D7) of 592 nM. On to `COc1cccc(NC(=O)Nc2ccc(C)c(-c3ccc(C(=O)Nc4ccncc4)cc3)c2)c1`, for which the XC50 (Plasmodium falciparum, 3D7) is 520 nM. On the same count and under the same terms, as for `O=C(Nc1ccccc1)N(Cc1ccc(-c2cccc(CNCc3ccc4c(c3)OCO4)c2)cc1)C1CCN(Cc2ccccc2)CC1`, the figure is 284 nM. The same measure, in the same setting: as for `CC(C)c1ccc(NC(=O)c2ccc(C(=O)NC3CCN(Cc4ccsc4)C3)cc2)cc1` (stereo not given), the figure is 1030 nM; as for `O=C(Nc1ccc(C(=O)Oc2ccc(-c3ccccc3)cc2)cc1)N[C@@H](Cc1ccc(O)cc1)C(=O)NC1CCN(Cc2ccc(O)cc2)C1` (stereo not given in full), 803 nM. On the same count and under the same terms, as for `O=C(Nc1cccc(F)c1)N(Cc1ccc(-c2ccc(CN3CCNCC3)cc2)cc1)C1CCN(Cc2ccccc2)CC1`, the figure is 769 nM; as for `CCc1c(C(=O)NC2CCC(N3CCC(c4ccccc4C)CC3)CC2)[nH]c2ccc(Br)cc12` (stereo not given), 928 nM; as for `Nc1nc(N)c2c(ccc3c2ccn3Cc2ccc(Cl)cc2)n1`, 3.2 nM.

On to `CCCCCCN1CCC(NCc2ccc(Cl)cc2)CC1`, for which the XC50 (Plasmodium falciparum, 3D7) was 854 nM. Consider `CC(C)Nc1cc(C(=O)N[C@@H](Cc2ccccc2)[C@H](O)CNCc2cccc(C(F)(F)F)c2)c(F)c(N2CCCCS2(=O)=O)c1`, for which the XC50 (Plasmodium falciparum, 3D7) amounted to 794 nM.

For the setting “Plasmodium falciparum, 3D7”, `CC(Cc1ccc(CN2CCN(Cc3ccccc3)CC2)cc1)NCC(O)c1cccc(C(F)(F)F)c1` (stereo not given) had an XC50 of 893 nM.

For the setting “Plasmodium falciparum, 3D7”, `CN1CCN(c2ccc3nccc(CCN4CCC(NCc5ccc6c(n5)NC(=O)CO6)CC4)c3n2)CC1` gave an XC50 of 824 nM.

Take `Cc1nc(N)nc(N)c1-c1ccc(Br)c([N+](=O)[O-])c1`: the XC50 (Plasmodium falciparum, 3D7) amounted to 201 nM.

On to `NC(=O)CCC(NC(=O)CNC(=O)Nc1cccc(C(F)(F)F)c1)C(=O)O` (stereo not given), for which the XC50 (Plasmodium falciparum, 3D7) worked out at 803 nM. `COc1ccc(C=NN=c2cc(C)[nH]c3c(C)cccc23)c2ccccc12`: the XC50 (Plasmodium falciparum, 3D7) was found to be 224 nM.

Regarding `CCNc1cc(C)nc(Nc2ccc(F)cc2)n1`, the XC50 (Plasmodium falciparum, 3D7) came out at 798 nM. On the same count and under the same terms, as for `Cc1[nH]c2ccccc2c1C1=CCN(CCN2CCOc3c(Br)cccc3C2=O)CC1`, the figure is 797 nM; as for `CCOc1ccc2nc(C)cc(N/N=C/c3cccc([N+](=O)[O-])c3)c2c1`, 664 nM; as for `O=C(C=Cc1ccc(Cl)c(Cl)c1)NCCCCCN1CCC(CCCNC(=O)c2sc3ccccc3c2Cl)CC1`, 398 nM.

As for `COc1ccc2nccc([C@@H](O)CN3CCC(NCc4cc5cc([N+](=O)[O-])ccc5[nH]4)CC3)c2c1`, the XC50 (Plasmodium falciparum, 3D7) amounted to 117 nM. Still for that read-out and setting: as for `CC(C)CC(=O)N(Cc1ccc(-c2ccc(CNC3Cc4ccccc4C3)cc2)cc1)C1CCNCC1`, the figure is 1170 nM; as for `Clc1cc(Cl)c2c(c1)C(NCCCNc1nc3ccccc3[nH]1)CCO2` (stereo not given), 325 nM; as for `COc1ccc(CN2CCC(CNC(C)c3cccc4ccccc34)CC2)cc1` (stereo not given), 175 nM. Same read-out and setting: as for `Cc1ccc(CNC(=N)NC(=O)c2nc(Cl)c(NCc3ccc(Cl)cc3)nc2N)c(C)c1`, the figure is 167 nM; as for `CN1CCN(c2ccc(CNc3ccc4ncc(-c5ccc(OC(F)(F)F)cc5)n4n3)cc2)CC1`, 834 nM; as for `COc1ccc(NC(=O)c2ccc3cc4ccccc4cc3c2)cc1N1CCN(C)CC1`, 1030 nM.

`O=C(/C=C/c1ccc(Cl)c(Cl)c1)NC1CCC(CN2CCC(c3nc4cc(O)ccc4[nH]3)CC2)CC1` (stereo not given) came in with an XC50 (Plasmodium falciparum, 3D7) of 241 nM. On to `CCN(CC)CCN(Cc1ccc(-c2ccc(C(F)(F)F)cc2)cc1)C(=O)Cn1c(SCc2ccc(F)cc2)nc(=O)c2sccc21`, for which the XC50 (Plasmodium falciparum, 3D7) was 987 nM. Still for that read-out and setting: as for `CCOc1ccc(-c2nonc2NC(=O)c2ccco2)cc1OCC`, the figure is 750 nM. On the same count and under the same terms, as for `Oc1ccc(CCNc2nc(NCc3ccccc3-c3ccccc3)nc(N3CCCNCC3)n2)cc1`, the figure is 877 nM; as for `CN1CCC(O)(c2ccc(Br)cc2)C(C(O)c2ccc(Br)cc2)C1` (stereo not given), 731 nM; as for `Cc1cc(N/N=C/c2cccc([N+](=O)[O-])c2)c2ccc(F)cc2n1`, 690 nM. The same measure, in the same setting: as for `O=C(Nc1cccnc1)c1cc(-c2cccnc2)nc2ccc(Cl)cc12`, the figure is 1060 nM. For the setting “Plasmodium falciparum, 3D7”, `O=S(=O)(c1ccccc1)n1ccc2cc(Nc3ncnc4cc(C#C[C@H]5CCCN5)sc34)ccc21` had an XC50 of 1070 nM. Regarding `Cc1nc(NCCc2c[nH]cn2)cc(NCc2ccccc2)n1`, the XC50 (Plasmodium falciparum, 3D7) stood at 833 nM. For `COc1ccc2c(c1)CC(C)(C)NC2CCCCCCCCC1NC(C)(C)Cc2cc(OC)ccc21` (stereo not given), the XC50 (Plasmodium falciparum, 3D7) is 1300 nM. The same measure, in the same setting: as for `Cc1cc2ncn(-c3nccc(NCc4ccc(F)cc4)n3)c2cc1C`, the figure is 886 nM; as for `COc1ccccc1-c1ccc(CNC(=O)C(CN2CCN(C)CC2)c2ccccc2)cc1` (stereo not given), 1260 nM; as for `CCCCOP(=O)(OCCCC)C(=Cc1ccc(O)c2ccccc12)P(=O)(OCCCC)OCCCC`, 1070 nM. The molecule `CCC[C@@H]([C@@H](CC1CCCCC1)C(=O)N[C@H](C(=O)Nc1nccs1)C(C)(C)SCCOCCOCC)N(O)C=O` came in with an XC50 (Plasmodium falciparum, 3D7) of 82.2 nM. Still for that read-out and setting: as for `CS(=O)(=O)Nc1ccc(-c2cnc3[nH]cc(-c4ccc(C(=O)O)cc4)c3c2)cc1`, the figure is 800 nM; as for `COc1cc2nc(NCc3ccc(S(N)(=O)=O)cc3)nc(Nc3ccc(Oc4ccccc4)cc3)c2cc1OC`, 445 nM; as for `CCCC(=O)Nc1ccc(OCCCCN(Cc2ccccc2C(F)(F)F)c2ccc(C(F)(F)F)c(C#N)c2)cc1`, 973 nM. The molecule `CCOc1ccc(-c2cc3nc(C4CCNCC4)c(C(=O)Nc4ccc(C)cc4Cl)cn3n2)cc1` gave an XC50 (Plasmodium falciparum, 3D7) of 919 nM. Still for that read-out and setting: as for `Cc1noc(C)c1-c1cccc(CNCc2ccc(-c3ccc(-c4nc5cc(F)ccc5[nH]4)cc3)cc2)c1`, the figure is 212 nM; as for `CCCCCOc1ccc(CC(C)NCC(O)c2cccc(Cl)c2)cc1` (stereo not given), 653 nM.

For the setting “Plasmodium falciparum, 3D7”, `Cc1cccc(Nc2nc3nonc3nc2Nc2cccc(Cl)c2Cl)c1C` displayed an XC50 of 1030 nM. Still for that read-out and setting: as for `CN1c2ccccc2Sc2cc(CNCCSCCNCc3ccc4c(c3)Sc3ccccc3N4C)ccc21`, the figure is 1010 nM. Regarding `Cc1c(C)c2c(c(C)c1O)CCC(C)(CCC(=O)O)O2` (stereo not given), the XC50 (Plasmodium falciparum, 3D7) was found to be 691 nM. Where the note is “Plasmodium falciparum, 3D7”, `CC(=O)N(C)C1CCN(Cc2cccc(-c3ccc(-c4nc5cc(F)ccc5[nH]4)cc3)c2)C1` (stereo not given) returned an XC50 of 957 nM. On the same count and under the same terms, as for `COc1cc(C(=O)Nc2cccc(-c3cn4ccc(C)cc4n3)c2)cc(OC)c1OC`, the figure is 761 nM; as for `Clc1ccc2nnc(-c3c(Cl)cccc3Cl)n2n1`, 905 nM; as for `CCc1cc(Br)c(CNCCCNc2cc(=O)c3ccccc3[nH]2)s1`, 949 nM.

The molecule `O=C(/C=C/c1ccc(Cl)c(Cl)c1)NCCCCCN1CCN(C(=O)Nc2ccc(C(F)(F)F)cc2)CC1` displayed an XC50 (Plasmodium falciparum, 3D7) of 721 nM. For the setting “Plasmodium falciparum, 3D7”, `COc1ccc([N+](=O)[O-])cc1N(Cc1ccccc1-c1ccccc1)S(=O)(=O)c1ccc(C(F)(F)F)cc1` came in with an XC50 of 784 nM. In turn, `Cc1cccc2nc(-c3ccc(-c4ccc(NC(=O)Nc5ccc(F)c(F)c5F)cc4)cc3)[nH]c12` returned an XC50 (Plasmodium falciparum, 3D7) of 273 nM. Same read-out and setting: as for `CCN(CC)CCCN(C(=O)c1cc2c(C)nn(-c3ccccc3)c2s1)c1nc(-c2ccc(OC)cc2)cs1`, the figure is 1150 nM. On the same count and under the same terms, as for `CC(C)(C)c1ccc(CNC(=O)COc2ccc(-c3nnc(-c4cccc([N+](=O)[O-])c4)o3)cc2[N+](=O)[O-])cc1`, the figure is 926 nM. Take `Cc1cccc2c(C(=O)NC3CCN(Cc4ccccc4)CC3)cc(-c3cccnc3)nc12`: under “Plasmodium falciparum, 3D7”, the XC50 was 1380 nM.

Molecule `CC[C@H]1CN2CC[C@@H]1C[C@H]2[C@H](O)c1cc(N2CCC(C(N)=O)CC2)nc2ccc(OC)cc12` displayed an XC50 (Plasmodium falciparum, 3D7) of 773 nM. Same read-out and setting: as for `CCCNC(=O)C1Cc2cc(OC)c(OC)cc2C2(N1)C(=O)N(Cc1cccc(OC)c1)c1ccccc12` (stereo not given), the figure is 863 nM. The molecule `O=C(Nc1ccccc1Cl)NC1CCC(CN2CCC(c3c[nH]c4ccccc34)CC2)CC1` (stereo not given) had an XC50 of 753 nM. For the same molecule, the XC50 (Plasmodium falciparum, 3D7) came to 803 nM. In turn, `CC(Oc1c(C2CCN(CCCCNC(=O)c3ccc(-c4ccc(Cl)cc4)cc3)CC2)ccc2c1CCCC2)C(N)=O` (stereo not given) registered an XC50 (Plasmodium falciparum, 3D7) of 948 nM.

As for `CCn1c(-c2nonc2N)nc2c(-c3ccc(CO)o3)ncc(OCCCN)c21`, where the note is “Plasmodium falciparum, 3D7”, the XC50 was found to be 1360 nM.

The values are drawn from ChEMBL document CHEMBL1157539, “Thousands of chemical starting points for antimalarial lead identification” (Nature, 2010).
